Data from paper PMC7772889, “Integrating biokinetics and in vitro studies to evaluate developmental neurotoxicity induced by chlorpyrifos in human iPSC-derived neural stem cells undergoing differentiation towards neuronal and glial cells” (Reproductive Toxicology (Elmsford, N.y.), 2020).

Experiments:
[1] = tested on: hiPSC-derived NSCs undergoing differentiation towards neurons and astrocytes; experiment: In vitro biokinetics of CPF and metabolites in medium, cells and plastic (HPLC-UV)
Experimental: The nominal concentration causing 5 % decrease of viability (IC5) was previously identified, extrapolating a dose response curves obtained with six CPF nominal concentrations (0.49, 1.95, 7.81, 31.25, 125, and 500 μM) vs solvent control (0.1 % DMSO) after 14-day treatment by means of resazurin test (CellTiter-Blue® Reagent).
CPF stock solutions were prepared in DMSO and stored in glass at −20 °C until the beginning of each experiment. Freshly prepared treatment solutions were obtained after the dilution of stock solutions in a ratio of […] in serum-free culture medium, keeping DMSO concentration at 0.1 %. Aliquots of the stock and daily treatment solutions (considered as the starting solutions) were stored at −80 °C until HPLC analysis.
Cells (about 21,000 cells/cm^2), seeded on 6 well PDL- and reduced growth factor Matrigel coated plates, were treated during the differentiation process, starting from day 7 of differentiation up to day 21, with treatment/medium refreshed twice a week (Fig. 2). Exposure to CPF of cells or pre-coated wells (without cells) was initiated by adding 2 mL per well of the corresponding treatment solutions or the vehicle (control wells). Four biological replicates were carried out.
A first set of experiments was used to fine tune the experimental conditions, including time points and exposure conditions, taking into account possible metabolism, bioaccumulation and/or physical sequestration processes. All the fractions (i.e., medium, cells, plastic and matrix-bound fractions) were collected, at the first and last day of treatment, at different time points (i.e., 1, 3, 6, 24 h) selected on the basis of the intrinsic features of the compound and the cellular model. At each time point, the medium was transferred into amber glass vials and stored at −80 °C until HPLC analysis. Cells were washed twice with PBS (2 mL/well); to avoid dehydration of the cells, an aliquot of PBS was kept in each well. PBS was then removed, cells were scraped from the wells in 250 μL MeOH, additional 100 μL MeOH were added for washing and all the content was transferred into amber glass vials. The same procedure was applied also to the wells used for measuring matrix-bound material (without cells). Cells were then sonicated until they were fully homogenized (about 15 min). All fractions, including DMSO from control wells and MeOH used to measure possible plastic binding, were stored at −80 °C until HPLC analysis. Four biological replicates were carried out.
All samples from kinetic experiments were analysed using high-performance liquid chromatography (HPLC), as previously described, to quantify CPF and its metabolites. Prior to analysis, one volume of the collected medium samples was mixed with three volumes of MeOH. All the mixtures, including cell and matrix-bound samples, were vortexed for 30 s and then centrifuged (Eppendorf 5417R; 4 °C, 2500 rpm) for 10 min. Preliminary assays were conducted to evaluate CPF and its metabolite recovery after the solvent extraction procedure from each type of sample. […] Plastic-bound fraction was injected as such.
The HPLC system included a PerkinElmer Series 200 analytical pump, a Restek™ Pinnacle ODS Amine C18 column, a PerkinElmer LC 235 Diode Array Detector and the PerkinElmer Totalchrom™ 3.1.2 software for data acquisition and evaluation. For analysing CPF, CPFO and TCP, a gradient elution was applied at a flow rate of 1.0 mL/min, starting at 80:20 % methanol /buffer (Tris /HCl 50 mM EDTA 1 mM pH 7.4) and reaching after 4 min a percentage of 70:30 (v/v), respectively, maintained for 16 min. Then, the gradient returned to the initial concentration before the next sample was injected.

[2] = tested on: hiPSC-derived NSCs undergoing differentiation; set-up: method as in PMID 32093744; settings: 14-day treatment; cited from earlier work
[3] = Adsorption to plastic; type: in vitro ADME
Experimental: Since CPF is a lipophilic chemical, its potential adsorption to the plastic wells was evaluated during the kinetic experiments. At the end of each experiment, the content (cells and medium) of each sample well was removed. Wells were washed twice with PBS, to remove possible cellular debris and 3 mL methanol (MeOH) were added. The plate was sealed with Parafilm and kept under gentle shaking at room temperature for 2h, before transferring the complete volume into amber glass vials with screw caps. The fractions were stored at −80 °C until HPLC analysis.

[4] = tested on: hiPSC-derived NSCs undergoing differentiation; set-up: method as in PMID 32093744; settings: 14-day treatment, resazurin, cited from earlier work
[5] = Non-specific binding to the matrix (Matrigel, without cells); type: in vitro ADME; settings: no cells
Experimental: Due to the presence of Matrigel (Reduced Growth Factors), pre-coated well plates were treated in parallel, with the same experimental conditions of the main experiment, but in the absence of cells. In order to determine if and how CPF was sequestered by proteins in Matrigel, the content of the pre-coated wells was transferred into amber glass vials with screw caps and stored at −80 °C until HPLC analysis. For all these analyses, 4 biological replicates were carried out.

Compound: CCOP(=S)(OCC)Oc1nc(Cl)c(Cl)cc1Cl [CPF, Chlorpyrifos]
- Intracellular levels of CPF ([1]; first day of treatment, 1 h until 24 h, 21 μM nominal): 2.5–4.7 nmol/well
- CPF in the medium as % of the initial CPF amount ([1]; first day of treatment, 24 h): around 41%
- CPF in the medium ([1]; first day of treatment, 24 h, 21 μM nominal): 18.0 ± 6.9 nmol/well
- Mass balance (% of the applied CPF amount) ([1]; first day of treatment, first three time points (1, 3 and 6 h)): around 95%
- Actual concentration in the medium at the beginning of the experiment (treatment solution) ([1]; nominal concentration 21 μM (IC5)): 24.5 ± 5.6 µM
- Amount of CPF in the cell compartment, last day compared to first day of treatment ([1]; p < 0.01): doubled
- Mass balance ([1]; repeated exposure, within the first 6 h): 110 to 120%
- in vitro nominal LOAEC for synaptogenesis [2]: 21 µM
- Bound-to-plastic fraction ([3]; first day of treatment): 0−8.4%
- Bound-to-plastic fraction ([3]; last day of treatment): 7.5−16.5%
- IC5 (nominal concentration causing 5 % decrease of viability) [4]: 21 µM
- IC20 ([4]; nominal concentration, read-out: IC20 (viability)): 37.1 µM
- Bound-to-matrigel fraction ([5]; first day of treatment): 1.7−4.2%
- Bound-to-matrigel fraction ([5]; last day of treatment): 5.8−6.5%
